Source: patent publication US20240398701A1, “MANUFACTURING METHODS FOR GASTRIC RESIDENCE SYSTEMS” (Lyndra Therapeutics, Inc., priority 2023, published 2024)

Experiment: Time-dependent behaviour in simulated gastric fluid over seven days
Format: physicochemical
Text: In some embodiments, a gastric residence system may include one or more time-dependent disintegrating matrices instead of or in addition to one or more enteric disintegrating matrices. A time-dependent disintegrating matrix may include one or more time-dependent polymers or linkers, that is, polymers that degrade in a time-dependent manner in the gastric environment. […] Thus, a polymer that degrades in a time-dependent manner can be readily prepared by mixing Plastoid B and triacetin; the degradation time of the Plastoid B-triacetin mixture can be extended by increasing the amount of Plastoid B used in the mixture (that is, using less triacetin in the mixture), while the degradation time can be decreased by decreasing the amount of Plastoid B used in the mixture (that is, using more triacetin in the mixture).

In the case of `CC(=O)OCC(COC(C)=O)OC(C)=O` [triacetin], the “release from a polymer formulation” value is reported as “releases from a polymer formulation in a time-dependent manner”.
